Test system: SEM cells
Assay: cell viability relative to DMSO control; higher = less cytotoxic
Conditions: 48 h
How it was run: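 Viability values are per-plate percentages of DMSO wells, with background from cell-free wells. Library compounds in DMSO were pin-dosed, in an 11-point threefold series from 47 μM to 0.79 nM, onto NOMO1 or SEM (500 cells/well) or P12-Ichikawa (1000 cells/well) leukemia cells in 1536-well plates (5 μl). Those cells had been adapted for at least four passages in each medium, and CellTiter-Glo One luminescence was read after 48 h at 37°C.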

[1] = HPLM + 10% dialyzed FBS, 0.000781 µM
[2] = HPLM + 10% dialyzed FBS, 0.00234 µM
[3] = HPLM + 10% dialyzed FBS, 0.00702 µM
[4] = HPLM + 10% dialyzed FBS, 0.0211 µM
[5] = HPLM + 10% dialyzed FBS, 0.0632 µM
[6] = HPLM + 10% dialyzed FBS, 0.19 µM
[7] = HPLM + 10% dialyzed FBS, 0.569 µM
[8] = HPLM + 10% dialyzed FBS, 1.71 µM
[9] = HPLM + 10% dialyzed FBS, 5.12 µM
[10] = HPLM + 10% dialyzed FBS, 15.4 µM
[11] = HPLM + 10% dialyzed FBS, 46.1 µM
[12] = RPMI 5 mM glucose + 10% FBS, 0.000781 µM
[13] = RPMI 5 mM glucose + 10% FBS, 0.00234 µM
[14] = RPMI 5 mM glucose + 10% FBS, 0.00702 µM
[15] = RPMI 5 mM glucose + 10% FBS, 0.0211 µM
[16] = RPMI 5 mM glucose + 10% FBS, 0.0632 µM
[17] = RPMI 5 mM glucose + 10% FBS, 0.19 µM
[18] = RPMI 5 mM glucose + 10% FBS, 0.569 µM
[19] = RPMI 5 mM glucose + 10% FBS, 1.71 µM
[20] = RPMI 5 mM glucose + 10% FBS, 5.12 µM
[21] = RPMI 5 mM glucose + 10% FBS, 15.4 µM
[22] = RPMI 5 mM glucose + 10% FBS, 46.1 µM
[23] = RPMI 5 mM glucose + 10% dialyzed FBS, 0.000781 µM
[24] = RPMI 5 mM glucose + 10% dialyzed FBS, 0.00234 µM
[25] = RPMI 5 mM glucose + 10% dialyzed FBS, 0.00702 µM
[26] = RPMI 5 mM glucose + 10% dialyzed FBS, 0.0211 µM
[27] = RPMI 5 mM glucose + 10% dialyzed FBS, 0.0632 µM
[28] = RPMI 5 mM glucose + 10% dialyzed FBS, 0.19 µM
[29] = RPMI 5 mM glucose + 10% dialyzed FBS, 0.569 µM
[30] = RPMI 5 mM glucose + 10% dialyzed FBS, 1.71 µM
[31] = RPMI 5 mM glucose + 10% dialyzed FBS, 5.12 µM
[32] = RPMI 5 mM glucose + 10% dialyzed FBS, 15.4 µM
[33] = RPMI 5 mM glucose + 10% dialyzed FBS, 46.1 µM

## NC(=O)C1CCCc2c1[nH]c1ccc(Cl)cc21 (configuration not stated)
[1]
  cell viability: 115%
[2]
  cell viability: 120%
[3]
  cell viability: 129%
[4]
  cell viability: 125%
[5]
  cell viability: 119%
[6]
  cell viability: 141%
[7]
  cell viability: 126%
[8]
  cell viability: 64.8%
[9]
  cell viability: 27.4%
[10]
  cell viability: 3.88%
[11]
  cell viability: 1.72%
[12]
  cell viability: 119%
[13]
  cell viability: 122%
[14]
  cell viability: 134%
[15]
  cell viability: 133%
[16]
  cell viability: 126%
[17]
  cell viability: 118%
[18]
  cell viability: 140%
[19]
  cell viability: 115%
[20]
  cell viability: 63.3%
[21]
  cell viability: 5.97%
[22]
  cell viability: 1.78%
[23]
  cell viability: 109%
[24]
  cell viability: 107%
[25]
  cell viability: 109%
[26]
  cell viability: 108%
[27]
  cell viability: 111%
[28]
  cell viability: 126%
[29]
  cell viability: 108%
[30]
  cell viability: 76.8%
[31]
  cell viability: 47.4%
[32]
  cell viability: 6.13%
[33]
  cell viability: 2.95%

## CN1CCN2c3ncccc3Cc3ccccc3C2C1 (configuration not stated)
[1]
  cell viability: 115%
[2]
  cell viability: 91.6%
[3]
  cell viability: 101%
[4]
  cell viability: 97.4%
[5]
  cell viability: 98.9%
[6]
  cell viability: 106%
[7]
  cell viability: 22%
[8]
  cell viability: 112%
[9]
  cell viability: 112%
[10]
  cell viability: 89.5%
[11]
  cell viability: 101%
[12]
  cell viability: 116%
[13]
  cell viability: 116%
[14]
  cell viability: 108%
[15]
  cell viability: 121%
[16]
  cell viability: 114%
[17]
  cell viability: 129%
[18]
  cell viability: 16.9%
[19]
  cell viability: 122%
[20]
  cell viability: 127%
[21]
  cell viability: 111%
[22]
  cell viability: 97%
[23]
  cell viability: 137%
[24]
  cell viability: 116%
[25]
  cell viability: 113%
[26]
  cell viability: 124%
[27]
  cell viability: 134%
[28]
  cell viability: 136%
[29]
  cell viability: 28.7%
[30]
  cell viability: 129%
[31]
  cell viability: 126%
[32]
  cell viability: 124%
[33]
  cell viability: 122%

## NC(=O)c1cccc2nc(-c3ccc([C@H]4CCCN4)cc3F)[nH]c12
[1]
  cell viability: 86.3%
[2]
  cell viability: 93.6%
[3]
  cell viability: 116%
[4]
  cell viability: 113%
[5]
  cell viability: 113%
[6]
  cell viability: 110%
[7]
  cell viability: 109%
[8]
  cell viability: 86.9%
[9]
  cell viability: 61.6%
[10]
  cell viability: 39.8%
[11]
  cell viability: 21.8%
[12]
  cell viability: 81.3%
[13]
  cell viability: 80.4%
[14]
  cell viability: 103%
[15]
  cell viability: 93.7%
[16]
  cell viability: 98.6%
[17]
  cell viability: 97.9%
[18]
  cell viability: 98.3%
[19]
  cell viability: 70.4%
[20]
  cell viability: 45.9%
[21]
  cell viability: 31.8%
[22]
  cell viability: 15.3%
[23]
  cell viability: 86.2%
[24]
  cell viability: 103%
[25]
  cell viability: 111%
[26]
  cell viability: 85.7%
[27]
  cell viability: 87.8%
[28]
  cell viability: 109%
[29]
  cell viability: 93.1%
[30]
  cell viability: 64.8%
[31]
  cell viability: 36.3%
[32]
  cell viability: 29.6%
[33]
  cell viability: 9%

## C[C@]12CC[C@@H]3c4ccc(O)cc4CC[C@H]3[C@@H]1C[C@@H](O)[C@@H]2O
[1]
  cell viability: 105%
[2]
  cell viability: 116%
[3]
  cell viability: 108%
[4]
  cell viability: 119%
[5]
  cell viability: 113%
[6]
  cell viability: 121%
[7]
  cell viability: 113%
[8]
  cell viability: 116%
[9]
  cell viability: 113%
[10]
  cell viability: 105%
[11]
  cell viability: 91.3%
[12]
  cell viability: 86.9%
[13]
  cell viability: 83.6%
[14]
  cell viability: 97.3%
[15]
  cell viability: 95.6%
[16]
  cell viability: 91.5%
[17]
  cell viability: 89.3%
[18]
  cell viability: 91.8%
[19]
  cell viability: 79.7%
[20]
  cell viability: 90.9%
[21]
  cell viability: 82.6%
[22]
  cell viability: 66.4%
[23]
  cell viability: 127%
[24]
  cell viability: 120%
[25]
  cell viability: 114%
[26]
  cell viability: 128%
[27]
  cell viability: 129%
[28]
  cell viability: 115%
[29]
  cell viability: 126%
[30]
  cell viability: 106%
[31]
  cell viability: 112%
[32]
  cell viability: 116%
[33]
  cell viability: 92.4%

## CN[C@@H](C)C(=O)N[C@H]1CN(C(=O)CC(C)C)CC[C@H]2CC[C@@H](C(=O)NC(c3ccccc3)c3ccccc3)N2C1=O
[1]
  cell viability: 76.3%
[2]
  cell viability: 90.5%
[3]
  cell viability: 98.3%
[4]
  cell viability: 100%
[5]
  cell viability: 98.1%
[6]
  cell viability: 93.7%
[7]
  cell viability: 99%
[8]
  cell viability: 103%
[9]
  cell viability: 99.9%
[10]
  cell viability: 71.4%
[11]
  cell viability: 41%
[12]
  cell viability: 107%
[13]
  cell viability: 103%
[14]
  cell viability: 105%
[15]
  cell viability: 110%
[16]
  cell viability: 104%
[17]
  cell viability: 102%
[18]
  cell viability: 96.7%
[19]
  cell viability: 83.5%
[20]
  cell viability: 74.2%
[21]
  cell viability: 56.5%
[22]
  cell viability: 38.5%
[23]
  cell viability: 95.5%
[24]
  cell viability: 86.1%
[25]
  cell viability: 92.8%
[26]
  cell viability: 104%
[27]
  cell viability: 106%
[28]
  cell viability: 97.9%
[29]
  cell viability: 102%
[30]
  cell viability: 95.1%
[31]
  cell viability: 77.7%
[32]
  cell viability: 61%
[33]
  cell viability: 36.2%

## O=C1Nc2ccc(I)cc2/C1=C/c1cc(Br)c(O)c(Br)c1
[1]
  cell viability: 98.4%
[2]
  cell viability: 107%
[3]
  cell viability: 103%
[4]
  cell viability: 104%
[5]
  cell viability: 101%
[6]
  cell viability: 111%
[7]
  cell viability: 107%
[8]
  cell viability: 96.5%
[9]
  cell viability: 105%
[10]
  cell viability: 94.6%
[11]
  cell viability: 76.8%
[12]
  cell viability: 113%
[13]
  cell viability: 113%
[14]
  cell viability: 105%
[15]
  cell viability: 112%
[16]
  cell viability: 102%
[17]
  cell viability: 115%
[18]
  cell viability: 118%
[19]
  cell viability: 110%
[20]
  cell viability: 108%
[21]
  cell viability: 88.4%
[22]
  cell viability: 67.5%
[23]
  cell viability: 115%
[24]
  cell viability: 109%
[25]
  cell viability: 115%
[26]
  cell viability: 111%
[27]
  cell viability: 121%
[28]
  cell viability: 106%
[29]
  cell viability: 121%
[30]
  cell viability: 110%
[31]
  cell viability: 104%
[32]
  cell viability: 89%
[33]
  cell viability: 62.5%

## CC[C@@]1(O)C(=O)OC\C2=C1\C=C\3N(CC4=C3N=C5C=CC=CC5=C4)C2=O
[1]
  cell viability: 126%
[2]
  cell viability: 116%
[3]
  cell viability: 110%
[4]
  cell viability: 103%
[5]
  cell viability: 40.3%
[6]
  cell viability: 14.9%
[7]
  cell viability: 7.26%
[8]
  cell viability: 4.92%
[9]
  cell viability: 4.54%
[10]
  cell viability: 4.65%
[11]
  cell viability: 5.06%
[12]
  cell viability: 105%
[13]
  cell viability: 86.8%
[14]
  cell viability: 87.2%
[15]
  cell viability: 55.3%
[16]
  cell viability: 15.3%
[17]
  cell viability: 11.4%
[18]
  cell viability: 6.29%
[19]
  cell viability: 3.5%
[20]
  cell viability: 3.72%
[21]
  cell viability: 3.35%
[22]
  cell viability: 4.07%
[23]
  cell viability: 127%
[24]
  cell viability: 119%
[25]
  cell viability: 105%
[26]
  cell viability: 77.2%
[27]
  cell viability: 28.1%
[28]
  cell viability: 13.4%
[29]
  cell viability: 7.26%
[30]
  cell viability: 4.41%
[31]
  cell viability: 4.16%
[32]
  cell viability: 4.15%
[33]
  cell viability: 4.83%

## CN[C@@H]1Cc2cccc3[nH]c(=O)n(c23)C1
[1]
  cell viability: 108%
[2]
  cell viability: 119%
[3]
  cell viability: 105%
[4]
  cell viability: 121%
[5]
  cell viability: 98.8%
[6]
  cell viability: 100%
[7]
  cell viability: 110%
[8]
  cell viability: 103%
[9]
  cell viability: 104%
[10]
  cell viability: 92.8%
[11]
  cell viability: 95.4%
